This test deals with ABCC1 (MRP1) (Homo sapiens, UniProt P33527).
ABCC1 (MRP1), sequence (P33527 whole entry): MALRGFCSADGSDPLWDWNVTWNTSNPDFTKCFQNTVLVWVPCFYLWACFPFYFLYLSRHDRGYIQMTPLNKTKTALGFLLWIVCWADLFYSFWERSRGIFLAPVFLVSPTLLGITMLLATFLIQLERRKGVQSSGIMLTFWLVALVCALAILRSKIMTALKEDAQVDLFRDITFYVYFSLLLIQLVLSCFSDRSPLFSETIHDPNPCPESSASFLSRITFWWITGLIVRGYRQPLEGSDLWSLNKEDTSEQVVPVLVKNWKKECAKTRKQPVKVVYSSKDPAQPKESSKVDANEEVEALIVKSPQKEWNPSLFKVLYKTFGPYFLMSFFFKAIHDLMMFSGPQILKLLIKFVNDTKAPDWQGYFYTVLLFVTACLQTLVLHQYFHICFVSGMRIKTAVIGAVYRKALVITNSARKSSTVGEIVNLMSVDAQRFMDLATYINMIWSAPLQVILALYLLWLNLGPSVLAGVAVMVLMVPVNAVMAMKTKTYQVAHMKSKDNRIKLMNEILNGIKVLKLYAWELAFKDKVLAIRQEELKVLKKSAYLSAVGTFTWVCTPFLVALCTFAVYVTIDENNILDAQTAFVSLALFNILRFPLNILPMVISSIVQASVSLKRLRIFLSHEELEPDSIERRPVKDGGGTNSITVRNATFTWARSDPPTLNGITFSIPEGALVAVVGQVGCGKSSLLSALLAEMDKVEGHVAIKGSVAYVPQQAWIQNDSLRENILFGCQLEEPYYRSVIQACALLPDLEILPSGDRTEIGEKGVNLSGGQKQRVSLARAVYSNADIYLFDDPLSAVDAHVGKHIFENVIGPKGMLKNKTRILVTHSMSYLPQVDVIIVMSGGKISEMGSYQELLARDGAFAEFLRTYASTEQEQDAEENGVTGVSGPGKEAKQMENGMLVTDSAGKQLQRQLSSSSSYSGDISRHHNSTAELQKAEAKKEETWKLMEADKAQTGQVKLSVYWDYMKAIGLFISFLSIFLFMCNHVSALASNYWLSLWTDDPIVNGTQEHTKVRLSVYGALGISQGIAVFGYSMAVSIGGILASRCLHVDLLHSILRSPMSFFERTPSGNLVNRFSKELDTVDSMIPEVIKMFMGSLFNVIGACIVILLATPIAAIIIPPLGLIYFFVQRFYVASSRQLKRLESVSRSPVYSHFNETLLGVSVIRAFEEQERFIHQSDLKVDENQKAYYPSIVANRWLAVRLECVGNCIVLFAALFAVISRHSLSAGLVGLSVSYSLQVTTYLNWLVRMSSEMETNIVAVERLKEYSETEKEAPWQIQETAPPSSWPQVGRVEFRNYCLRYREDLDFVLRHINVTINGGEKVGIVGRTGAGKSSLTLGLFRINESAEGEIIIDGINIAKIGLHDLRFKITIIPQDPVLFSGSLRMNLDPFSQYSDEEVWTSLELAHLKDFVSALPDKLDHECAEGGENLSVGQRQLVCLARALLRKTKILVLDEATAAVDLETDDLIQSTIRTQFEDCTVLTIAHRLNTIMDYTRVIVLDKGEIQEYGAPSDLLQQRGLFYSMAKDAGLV

The term IC50 denotes the concentration needed to halve the response being measured. Lower therefore signals greater potency. Take `CSc1ccc(/C=C2/C(C)=C(CC(=O)O)c3cc(F)ccc32)cc1` [SS, sulindac sulfide]: it took 5.6 µM to reach half-maximal inhibition (IC50).

The record behind these values is paper PMC4820889 (Journal of Biomedical Research, 2015).
